Source: article PMC4198181, “Gold(I) Complexes of 9-Deazahypoxanthine as Selective Antitumor and Anti-Inflammatory Agents” (PLoS ONE, 2014)

How the values were obtained:
[1] = system: IL-1β secretion in LPS-stimulated macrophage-like THP-1 cells; assay: LPS-induced IL-1β secretion in THP-1 macrophages (ELISA); format: cell-based, human; settings: 300 nM, 1 h pretreatment, 24 h after LPS
Experimental: (§1) For the determination of biological activity, we used the human monocytic leukaemia cell line THP-1 (ECACC, Salisbury, UK). The cells were cultivated at 37°C in the RPMI 1640 medium supplemented with 2 mM L-glutamine, 10% FBS, 100 U/mL of penicillin and 100 µg/mL of streptomycin in a humidified atmosphere containing 5% CO2. Stabilized cells (3rd–15th passage) were split into microtitration plates to get a concentration of 500 000 cells/mL and the differentiation to macrophages was induced by phorbol myristate acetate (PMA) dissolved in dimethyl sulfoxide (DMSO) at the final concentration of 50 ng/ml, and the cells were incubated for 24 h. In comparison with monocytes, differentiated macrophages tend to adhere to the bottoms of the cultivation plates. For next 24 h the cells were incubated with a fresh complete RPMI medium, i.e. containing antibiotics and FBS, without PMA. The medium was then aspirated, and the cells were washed with PBS and cultivated for next 24 hours in serum-free RPMI 1640 medium. These prepared macrophages were used for the detection of inflammatory response.
(§2) Differentiated macrophages were pretreated with 300 nM solutions of the tested complexes, HLn, AuCl, [AuCl(PPh3)], PPh3 and Auranofin dissolved in DMSO (the final DMSO concentration was 0.1%) and with 0.1% DMSO solution itself (vehicle) for 1 h; the given concentrations of the tested compounds lack the cytotoxic effect (cell viability >94%) based on the results of WST-1 test. The inflammatory response in pretreated macrophages was triggered by the addition of 1.0 µg/mL lipopolysaccharide (LPS) dissolved in water, while the control cells (CTRL) remained without the LPS treatment.
(§3) Macrophages, which were pretreated with the tested compounds (complexes 1–5, HLn, AuCl, [AuCl(PPh3)], PPh3 and Auranofin) for 1 h, were incubated with LPS for next 24 h. After this period, the medium was collected and the concentration of TNF-α, and IL-1β was determined by the Instant ELISA Kit according to the manufactures' manual.
(§4) The statistically significant differences between individual groups during anti- inflammatory testing were evaluated using a one-way ANOVA test for statistical analysis, followed by Tukey's post-hoc test for multiple comparisons. GraphPad Prism 5.02 (GraphPad Software Inc., San Diego, CA, USA) was used to perform the analysis. The results are presented as arithmetic means±S.E. values.

[2] = system: human cancer cell lines (MCF7, HOS, A549, G361, HeLa, A2780, A2780R, 22Rv1); assay: MTT in vitro cytotoxicity, summary over the panel of human cancer cell lines; format: cell-based; settings: 24 h, MTT; HAuCl4 except on G361; read-out: IC50 against all the cancer cell lines tested (inactive up to the stated concentration)
Experimental: In vitro cytotoxic activity was determined by the MTT assay in human breast adenocarcinoma (MCF7; ECACC no. 86012803), human osteosarcoma (HOS; ECACC no. 87070202), lung carcinoma (A549; ECACC no. 86012804), malignant melanoma (G361; ECACC no. 88030401), cervix epitheloid carcinoma (HeLa; ECACC no. 93021013), ovarian carcinoma (A2780; ECACC no. 93112519), cisplatin-resistant ovarian carcinoma (A2780R; ECACC no. 93112517) and prostate carcinoma (22Rv1; ECACC no 105092802) cancer cell lines, purchased from European Collection of Cell Cultures (ECACC). The cells were cultured according to the ECACC instructions and they were maintained at 37°C and 5% CO2 in a humidified incubator. The primary culture of human hepatocytes (HEP220, batch number HEP220819) was obtained from Biopredic International (France). The culture medium was Williams and HAM's F-12 (1∶1) supplemented with penicillin, streptomycin, ascorbic acid, linoleic acid, holo-transferin, ethanolamine, glucagon, insulin, dexamethasone, pyruvate, glucose, glutamine, amphotericin. The medium was enriched for plating with 2% foetal calf serum (v/v). The medium was exchanged for a serum-free medium the day after and the culture was stabilized for additional 24 h. Thereafter, the cells were ready for treatments. The cultures were maintained at 37°C and 5% CO2 in a humidified incubator. The cells were treated with complexes 1–5 (at the concentration levels of 0.01, 0.1, 1.0, 5.0, 25.0, and 50.0 µM), starting compounds e.g. HL1–5, AuCl, and cisplatin (applied up to 50 µM) for 24 h, using multi-well culture plates of 96 wells. […]
The cytotoxicity data were expressed as the percentage of viability, where 100% represented the treatments with vehicle (0.1% DMF or 0.1% DMSO). […] The IC50 values were calculated from viability curves. […] The significance of the differences between the results was assessed by the ANOVA analysis with p<0.05 considered to be significant (QC Expert 3.2, Statistical software, TriloByte Ltd., Pardubice, Czech Republic).

[3] = system: TNF-α secretion in LPS-stimulated macrophage-like THP-1 cells; assay: LPS-induced TNF-α secretion in THP-1 macrophages (ELISA); format: cell-based, human; settings: 300 nM, 1 h pretreatment, 24 h after LPS
Experimental: as §1, §2, §3, §4

[4] = system: G361 malignant melanoma cells; assay: MTT in vitro cytotoxicity, G361; format: cell-based, human; settings: 24 h treatment, read-out: IC50±S.E., G361
Experimental: In vitro cytotoxic activity was determined by the MTT assay in human breast adenocarcinoma (MCF7; ECACC no. 86012803), human osteosarcoma (HOS; ECACC no. 87070202), lung carcinoma (A549; ECACC no. 86012804), malignant melanoma (G361; ECACC no. 88030401), cervix epitheloid carcinoma (HeLa; ECACC no. 93021013), ovarian carcinoma (A2780; ECACC no. 93112519), cisplatin-resistant ovarian carcinoma (A2780R; […] ECACC no 105092802) cancer cell lines, purchased from European Collection of Cell Cultures (ECACC). […] The primary culture of human hepatocytes (HEP220, batch number HEP220819) was obtained from Biopredic International (France). The culture medium was Williams and HAM's F-12 (1∶1) supplemented with penicillin, streptomycin, ascorbic acid, linoleic acid, holo-transferin, ethanolamine, glucagon, insulin, dexamethasone, pyruvate, glucose, glutamine, amphotericin. The medium was enriched for plating with 2% foetal calf serum (v/v). The medium was exchanged for a serum-free medium the day after and the culture was stabilized for additional 24 h. Thereafter, the cells were ready for treatments. […] The MTT assay was performed spectrophotometrically at 540 nm (TECAN, Schoeller Instruments LLC). The cytotoxicity data were expressed as the percentage of viability, where 100% represented the treatments with vehicle (0.1% DMF or 0.1% DMSO). The cytotoxicity data from the cancer cell lines were acquired from three independent experiments (conducted in triplicate) using cells from different passages. The IC50 values were calculated from viability curves. The results are presented as arithmetic means±standard error of the mean (S.E.).

[5] = system: IκB-α degradation (NF-κB signalling pathway); assay: LPS-induced IκB-α degradation (Western blot) in THP-1 macrophages; format: cell-based, human; settings: 300 nM, 30 min after LPS
Experimental: Macrophage-like THP-1 cells were pretreated with the tested compounds and stimulated by LPS as was describe above. Thirty minutes after the addition of LPS, the medium was aspirated and cells were washed by cold phosphate buffer solution (PBS). Subsequently, the cells were collected using the lysis buffer [50 mM Tris-HCl pH 7.5, 1 mM EGTA, 1 mM EDTA, 1 mM sodium orthovanadate, 50 mM sodium fluoride, 5 mM sodium pyrophosphate, 270 mM sucrose, 0.1% (v/v) Triton X-100, and cOmplete Protease Inhibitor Cocktail (Roche, Germany)] and scraper. The lysis of cells was facilitated by a short (≈30 s) incubation in the ultrasonic water bath. The protein concentration was determined according to Bradford's method. For protein separation, 30 µg of protein was loaded onto the 12% polyacrylamide gel. […] The membranes were incubated with the primary anti-IκB-α antibody at the concentration ratio of 1∶500, or with the primary anti-β-actin at the concentration ration of 1∶5 000 at 4°C for 16 h. After washing, the secondary anti-mouse IgG antibody diluted 1∶2 000 was applied on the membranes and incubated at laboratory temperature (22°C) for 1 h. The amount of the bound secondary antibody was detected colorimetrically by an Opti-4CN Kit according to the manufacturer's manual.

[6] = system: THP-1 monocytic leukaemia cells; assay: WST-1 in vitro cytotoxicity, THP-1; format: cell-based, human; settings: 24 h treatment, WST-1, 0.16–10.00 µM; read-out: IC50±S.E., THP-1
Experimental: Before the in vitro anti-inflammatory testing, in vitro cytotoxicity on human monocytic leukaemia cells (THP-1, ECACC no. 88081201) was determined using the WST-1 assay. The THP-1 cells (floating monocytes, 500 000 cells/mL) were incubated in 100 µL of the serum-free RPMI 1640 medium and seeded into 96-well plates in triplicate at 37°C. Measurements were taken 24 h after the treatment with the tested compounds dissolved in 0.1% DMSO in the concentration range of 0.16–10.00 µM. Viability was determined by the WST-1 test according to the manufacturer's manual. The amount of the formed formazan (which correlates to the number of metabolically active cells in the culture) was calculated as a percentage of the control cells, which were treated only with 0.1% DMSO and was set-up as 100%. The IC50 values of the tested compounds were calculated from the obtained data. The WST-1 assay was performed spectrophotometrically at 440 nm (FLUOstar Omega, BMG Labtech).
The cytotoxicity data were expressed as the percentage of viability, where 100% represented the treatments with vehicle (0.1% DMF or 0.1% DMSO). The cytotoxicity data from the cancer cell lines were acquired from three independent experiments (conducted in triplicate) using cells from different passages. The IC50 values were calculated from viability curves. The results are presented as arithmetic means±standard error of the mean (S.E.). The significance of the differences between the results was assessed by the ANOVA analysis with p<0.05 considered to be significant (QC Expert 3.2, Statistical software, TriloByte Ltd., Pardubice, Czech Republic).

IL-1β mRNA = assay: IL-1β gene expression by RT-qPCR in LPS-stimulated THP-1 macrophages; format: cell-based, human; settings: 300 nM, 2 h after LPS, normalised to β-actin
Experimental: as §1
(§5) In the order to evaluate the expression of TNF-α, IL-1β, and β-actin mRNA, total RNA was isolated directly from the LPS-stimulated THP-1 cells. THP-1 macrophages were pretreated with compounds 2, 5, and Auranofin at the concentration of 300 nM or the vehicle (0.1% DMSO) only. After 1 h of the incubation, the inflammatory response was induced by LPS [except for the control cells (CTRL)]. After 2 h of the incubation with LPS, the medium was aspirated and the total RNA was isolated directly from the cells in cultivation plates using a RealTime Ready Cell Lysis Kit (Roche), according to the manufacturer's instructions.
(§6) The gene expression was quantified by two-step reverse-transcription quantitative (real-time) PCR (RT-qPCR). The reverse transcription step was performed by Transcriptor Universal cDNA Master using cell lysate as a template. […] The results were normalized to the amount of ROX reference dye, and the change in gene expression was determined by the 2^−ΔΔCT method. […]

TNF-α mRNA = assay: TNF-α gene expression by RT-qPCR in LPS-stimulated THP-1 macrophages; format: cell-based, human; settings: 300 nM, 2 h after LPS, normalised to β-actin
Experimental: as §1, §5, §6

## [Au+].[Cl-] [AuCl]
[1]
  effect on LPS-induced IL-1β secretion: decreased the production of IL-1β by a manner comparable to free ligands
[2]
  IC50: > 50 µM
[3]
  effect on LPS-induced TNF-α secretion: none of the reference compounds, such as AuCl, HLn, [AuCl(PPh3)] and PPh3, exhibited any expected effect

## [Cl][Au-]([Cl])([Cl])[Cl].[H+] [HAuCl4, reference compound]
[4]
  IC50: 38.1 ± 2.3 µM
[2]
  IC50: > 50 µM

## CC[PH](CC)(CC)[Au][S][C@@H]1O[C@H](COC(C)=O)[C@@H](OC(C)=O)[C@H](OC(C)=O)[C@H]1OC(C)=O [Auranofin, triethylphosphine-(2,3,4,6-tetra-O-acetyl-β-D-thiopyranosato)gold(I), reference compound]
[5]
  effect on LPS-induced IκB degradation: block moderately the IκB degradation
[6]
  IC50: 0.9 ± 0.1 µM
IL-1β mRNA
  effect on IL-1β mRNA transcription: significantly reduce the transcription
TNF-α mRNA
  effect on TNF-α mRNA transcription: significantly reduce the transcription
